Test results taken from patent US7674825B2, “Dicarboxylic acid derivatives with pharmaceutical properties” (Bayer Aktiengesellschaft, priority 2002, dated 2010).
Each block holds one compound with its values, some of them ahead of it.

Columns and labels:
arteria saphena = assay: Vasorelaxant action in vitro (phenylephrine-contracted arteria saphena rings); type: cell-based, Rabbits; conditions: Oryctolagus cuniculus; rabbit arteria saphena rings, contraction induced by phenylephrine; concentration reducing contraction to 50%
Protocol: Rabbits are anesthetized by intravenous injection of thiopental sodium […] (about 50 mg/kg) and exsanguinated. The arteria saphena is removed and divided into 3 mm wide rings. The rings are individually mounted on in each case one triangular pair of hooks, open at the end, made of 0.3 mm strong special wire (Remanium®). Under a pretension, each ring is transferred into 5 ml organ baths containing a warm, carbogen-aerated Krebs-Henseleit solution at 37° C. having the following composition (mM): NaCl: 119; KCl: 4.8; CaCl2×2 H2O: 1; MgSO4×7 H2O: 1.4; KH2PO4: 1.2; NaHCO3: 25; glucose: 10; bovine serum albumin: 0.001%. The contractility is detected using Statham UC2 cells, amplified and digitalized by means of A/D converters (DAS-1802 HC, Keithley Instruments Munich), and recorded in parallel on linear recorders. Contractions are induced by addition of phenylephrine.
After several (in general 4) control cycles, the substance to be investigated is added in each further passage in increasing dosage, and the height of the contraction achieved under the influence of the test substance is compared with the height of the contraction achieved in the last preliminary passage. From this, the concentration which is necessary in order to reduce the contraction achieved in the preliminary control to 50% (IC50) is calculated. The standard administration volume is 5 μl. The proportion of DMSO in the bath solution corresponds to 0.1%.

Heme-free sGC = target: T1, Heme-free sGC (Rattus norvegicus, UniProt P20595); assay: Stimulation of recombinant soluble guanylate cyclase (sGC) in vitro, heme-free enzyme; type: biochemical; conditions: heme-free (Tween 20 0.5%)
T1 construct: made in house; host or cells: Sf9 insect cells (baculovirus)
T1 sequence (P19686 whole entry partner): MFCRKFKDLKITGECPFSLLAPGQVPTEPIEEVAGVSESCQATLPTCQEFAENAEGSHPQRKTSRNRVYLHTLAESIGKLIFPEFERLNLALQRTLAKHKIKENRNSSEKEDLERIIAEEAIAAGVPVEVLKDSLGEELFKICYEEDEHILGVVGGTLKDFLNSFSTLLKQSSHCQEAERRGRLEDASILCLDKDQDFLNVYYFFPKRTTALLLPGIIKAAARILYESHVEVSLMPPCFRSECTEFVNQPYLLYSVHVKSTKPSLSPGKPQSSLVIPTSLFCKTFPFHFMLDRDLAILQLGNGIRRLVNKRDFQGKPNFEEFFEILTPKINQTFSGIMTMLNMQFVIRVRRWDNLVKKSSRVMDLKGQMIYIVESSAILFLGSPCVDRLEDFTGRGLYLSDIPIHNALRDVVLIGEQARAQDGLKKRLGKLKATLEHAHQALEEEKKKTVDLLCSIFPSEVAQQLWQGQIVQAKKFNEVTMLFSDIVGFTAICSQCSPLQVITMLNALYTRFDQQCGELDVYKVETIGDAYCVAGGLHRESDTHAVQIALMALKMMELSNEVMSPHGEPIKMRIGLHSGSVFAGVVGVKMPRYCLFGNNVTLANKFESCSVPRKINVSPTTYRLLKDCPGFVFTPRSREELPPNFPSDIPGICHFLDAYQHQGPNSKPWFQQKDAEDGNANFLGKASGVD
T1 sequence (P20595 whole entry): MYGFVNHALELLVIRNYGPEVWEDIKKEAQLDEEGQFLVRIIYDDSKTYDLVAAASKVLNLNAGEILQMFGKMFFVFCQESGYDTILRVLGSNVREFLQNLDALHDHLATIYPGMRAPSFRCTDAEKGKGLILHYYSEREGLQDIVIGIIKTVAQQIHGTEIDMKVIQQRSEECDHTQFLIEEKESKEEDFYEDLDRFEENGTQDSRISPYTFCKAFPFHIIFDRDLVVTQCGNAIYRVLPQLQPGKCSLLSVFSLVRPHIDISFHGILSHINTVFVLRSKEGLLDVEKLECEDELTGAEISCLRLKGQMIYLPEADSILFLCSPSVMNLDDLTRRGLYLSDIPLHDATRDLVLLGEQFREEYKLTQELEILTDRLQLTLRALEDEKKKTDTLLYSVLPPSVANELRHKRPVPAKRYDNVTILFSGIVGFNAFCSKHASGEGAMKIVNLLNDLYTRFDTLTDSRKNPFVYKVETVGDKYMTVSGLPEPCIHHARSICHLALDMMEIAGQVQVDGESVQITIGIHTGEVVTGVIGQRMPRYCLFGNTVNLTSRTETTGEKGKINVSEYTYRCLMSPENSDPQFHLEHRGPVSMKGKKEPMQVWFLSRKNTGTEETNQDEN
Protocol: (§1) The investigations on the stimulation of recombinant soluble guanylate cyclase (sGC) and the compounds according to the invention with and without sodium nitroprusside and with and without the heme-dependent sGC inhibitor 1H-1,2,4-oxadiazole-(4,3a)-quinoxalin-1-one (ODQ) were carried out by the method described in detail in the following literature reference: M. Hoenicka, E. M. Becker, H. Apeler, T. Sirichoke, H. Schroeder, R. Gerzer and J.-P. Stasch: Purified soluble guanylyl cyclase expressed in a baculovirus/Sf9 system: stimulation by YC-1, nitric oxide, and carbon oxide. J. Mol. Med. 77 (1999): 14-23.
Heme-free guanylate cyclase was obtained by adding Tween 20 to the sample buffer (final concentration 0.5%).
(§2) Activation of sGC by a test substance is stated as n-fold stimulation of basal activity.

Heme-containing sGC = target: T2, Heme-containing sGC (Rattus norvegicus, UniProt P20595); assay: Stimulation of recombinant soluble guanylate cyclase (sGC) in vitro, heme-containing enzyme; type: biochemical; conditions: for Stimulation (n-fold) Heme-containing sGC Basal: n-fold stimulation of basal activity
T2 construct: made in house; host or cells: Sf9 insect cells (baculovirus)
T2 sequence (P19686 whole entry partner): as the sequence (P19686 whole entry partner) above
T2 sequence (P20595 whole entry): as the sequence (P20595 whole entry) above
Protocol: as §1, §2

- IC50 (arteria saphena): 1.9 nM
Compound: O=C(O)CCCCC(/C=C/c1ccccc1OCc1ccc(-c2ccccc2)cc1)Cc1ccc(C(=O)O)cc1 (stereo not shown) [Example 26]

- IC50 (arteria saphena): 2.5 nM
Compound: CCCCCCCCOc1ccccc1/C=C/C(CCCCC(=O)O)Cc1ccc(C(=O)O)cc1 (stereo not shown) [Example 29]

- IC50 (arteria saphena): 3500 nM
Compound: O=C(O)CCCCC(/C=C/c1ccccc1NCc1ccccc1)Cc1ccc(C(=O)O)cc1 (stereo not shown) [Example 30]

- IC50 (arteria saphena): 170 nM
Compound: O=C(O)CCCCC(/C=C/c1cccnc1OCCCCCc1ccccc1)Cc1ccc(C(=O)O)cc1 (stereo not shown) [Example 34]

- IC50 (arteria saphena): 0.2 nM
Compound: O=C(O)CCCCC(/C=C/c1ccccc1OCc1ccc(C2CCCCC2)cc1)Cc1ccc(C(=O)O)cc1 (stereo not shown) [Example 72]

- IC50 (arteria saphena): 5.2 nM
Compound: Cc1cc(COc2ccccc2/C=C/C(CCCCC(=O)O)Cc2ccc(C(=O)O)cc2)nn1-c1cc(Cl)cc(Cl)c1 (stereo not shown) [Example 76]

- IC50 (arteria saphena): 5.8 nM
Compound: O=C(O)CCCCC(/C=C/c1ccccc1OCc1cc2ccccc2s1)Cc1ccc(C(=O)O)cc1 (stereo not shown) [Example 78]

- IC50 (arteria saphena): 3.9 nM
Compound: O=C(O)CCCCC(/C=C/c1ccccc1OCc1ccc(-c2csc(C(F)(F)F)n2)cc1)Cc1ccc(C(=O)O)cc1 (stereo not shown) [Example 81]

- Stimulation (n-fold) Heme-free sGC +ODQ (10 μM) (Heme-free sGC; 0.1 μM test compound): 392 n-fold
- Stimulation (n-fold) Heme-free sGC Basal (Heme-free sGC; 0.1 μM test compound): 436 n-fold
- Stimulation (n-fold) Heme-free sGC +ODQ (10 μM) (Heme-free sGC; 1.0 μM test compound): 435 n-fold
- Stimulation (n-fold) Heme-free sGC Basal (Heme-free sGC; 1.0 μM test compound): 476 n-fold
- Stimulation (n-fold) Heme-free sGC +ODQ (10 μM) (Heme-free sGC; 10 μM test compound): 500 n-fold
- Stimulation (n-fold) Heme-free sGC Basal (Heme-free sGC; 10 μM test compound): 541 n-fold
- IC50 (arteria saphena): 0.2 nM
- Stimulation (n-fold) Heme-containing sGC +ODQ (10 μM) (Heme-containing sGC; 0.1 μM test compound): 84 n-fold
- Stimulation (n-fold) Heme-containing sGC +SNP (0.1 μM) (Heme-containing sGC; 0.1 μM test compound): 45 n-fold
- Stimulation (n-fold) Heme-containing sGC Basal (Heme-containing sGC; 0.1 μM test compound): 17 n-fold
- Stimulation (n-fold) Heme-containing sGC +ODQ (10 μM) (Heme-containing sGC; 1.0 μM test compound): 151 n-fold
- Stimulation (n-fold) Heme-containing sGC +SNP (0.1 μM) (Heme-containing sGC; 1.0 μM test compound): 44 n-fold
- Stimulation (n-fold) Heme-containing sGC Basal (Heme-containing sGC; 1.0 μM test compound): 23 n-fold
- Stimulation (n-fold) Heme-containing sGC +SNP (0.1 μM) (Heme-containing sGC; 10 μM test compound): 54 n-fold
- Stimulation (n-fold) Heme-containing sGC Basal (Heme-containing sGC; 10 μM test compound): 33 n-fold
- Stimulation (n-fold) Heme-containing sGC +ODQ (10 μM) (Heme-containing sGC): 178 n-fold
Compound: O=C(O)CCCC[C@@H](CCc1ccccc1OCc1ccc(C2CCCCC2)cc1)Cc1ccc(C(=O)O)cc1 [Example 93]

- IC50 (arteria saphena): 190 nM
Compound: O=C(O)CCCCC(/C=C/c1ccccc1OCCCCCN1CCCC1)Cc1ccc(C(=O)O)cc1 (stereo not shown) [Example 116]

- IC50 (arteria saphena): 220 nM
Compound: O=C(O)CCCCC(COCc1cccc(Oc2ccccc2F)c1)Cc1ccc(C(=O)O)cc1 (stereo not shown) [Example 132]

- IC50 (arteria saphena): 30 nM
Compound: O=C(O)CCCCC(CNc1ccccc1OCCCCCc1ccccc1)Cc1ccc(C(=O)O)cc1 (stereo not shown) [Example 150]

- IC50 (arteria saphena): 580 nM
Compound: O=C(O)CSCCC(/C=C/c1ccccc1OCCCCCc1ccccc1)Cc1ccc(C(=O)O)cc1 (stereo not shown) [Example 164]
